Measurements taken from PMC4111603 (PLoS ONE, 2014).
Like-named read-outs stand apart in the source and are kept apart here.

Experiments:
[1] = test system: fatty acid amide hydrolase (FAAH); conditions: cited from earlier work
[2] = biological target: T1, Ovine COX-1 (Ovis aries, UniProt P05979); assay: COX-1 oxygenation of arachidonic acid, oxygen electrode; type: biochemical; conditions: for COX-1 activity (% of control): 10 µM AA, initial activity 10-30 s, mean ± s.e.m., n = 3; for inhibition at 300 µM: 300 µM compound, read-out: inhibition of COX-1-catalysed oxygenation of arachidonic acid
T1 construct: purchased Cayman Chemical Co. 60100
T1 sequence (P05979 25-600): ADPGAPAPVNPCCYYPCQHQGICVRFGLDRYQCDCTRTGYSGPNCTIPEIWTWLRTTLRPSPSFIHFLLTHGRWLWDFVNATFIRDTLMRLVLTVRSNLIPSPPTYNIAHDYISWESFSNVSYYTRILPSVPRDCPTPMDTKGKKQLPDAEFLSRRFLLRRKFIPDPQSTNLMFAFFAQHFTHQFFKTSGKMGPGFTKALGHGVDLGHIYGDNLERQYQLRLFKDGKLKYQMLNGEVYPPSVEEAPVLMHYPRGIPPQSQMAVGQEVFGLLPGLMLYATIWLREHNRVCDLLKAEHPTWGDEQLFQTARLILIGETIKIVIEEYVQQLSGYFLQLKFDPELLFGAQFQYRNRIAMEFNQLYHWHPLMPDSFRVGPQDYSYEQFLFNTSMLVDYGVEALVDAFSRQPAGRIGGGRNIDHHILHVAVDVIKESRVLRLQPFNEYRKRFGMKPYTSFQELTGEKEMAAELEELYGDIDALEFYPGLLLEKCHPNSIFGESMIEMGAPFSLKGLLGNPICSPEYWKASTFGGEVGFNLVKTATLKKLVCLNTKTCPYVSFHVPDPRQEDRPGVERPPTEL
Procedure: (§1) The assay was performed according to Meade et al. with minor modifications using an oxygen electrode chamber with integral stirring (Oxygraph System, Hansatech Instruments, King’s Lynn, U.K.). The electrode was calibrated to ambient temperature and air pressure. Samples were prepared in 0.1 M Tris-HCl buffer pH 7.4 containing 1 µM haematin, 2 mM phenol, 5 mM EDTA, 10 µM substrate (AA or 2-AG) (final assay volume was 2 ml). After addition of test substance dissolved in DMSO (final assay concentration 1%) a baseline was established for 5 min before initiation of reaction by addition of 200 units COX-1 or COX-2. Change in oxygen consumption was monitored for approximately 5 min.
(§2) FAAH inhibition was calculated using log(inhibitor) vs. response with variable slope (four parameters) algorithm in the GraphPad Prism computer program (GraphPad Software Inc., San Diego, CA. USA). […] The two curves were compared by Akaike’s informative criteria and the best fit was chosen. Initial COX activities were calculated as the change in oxygen tension between 10 and 30 seconds after addition of enzyme.

[3] = biological target: T2, rat brain FAAH (Rattus norvegicus, UniProt P97612); assay: FAAH hydrolysis of [3H]AEA in rat brain homogenates; type: biochemical; conditions: 0.5 µM AEA; for inhibition at 1000 µM: read-out: % inhibition of [3H]AEA hydrolysis @ 1000 µM, 1000 µM compound
T2 construct: FAAH activity was quantified by measuring hydrolysis of tritium labelled AEA in rat brain homogenates; from tissue; host or cells: rat brain (minus cerebella), Wistar or Sprague-Dawley, washed membrane pellets
T2 sequence (P97612 1-579): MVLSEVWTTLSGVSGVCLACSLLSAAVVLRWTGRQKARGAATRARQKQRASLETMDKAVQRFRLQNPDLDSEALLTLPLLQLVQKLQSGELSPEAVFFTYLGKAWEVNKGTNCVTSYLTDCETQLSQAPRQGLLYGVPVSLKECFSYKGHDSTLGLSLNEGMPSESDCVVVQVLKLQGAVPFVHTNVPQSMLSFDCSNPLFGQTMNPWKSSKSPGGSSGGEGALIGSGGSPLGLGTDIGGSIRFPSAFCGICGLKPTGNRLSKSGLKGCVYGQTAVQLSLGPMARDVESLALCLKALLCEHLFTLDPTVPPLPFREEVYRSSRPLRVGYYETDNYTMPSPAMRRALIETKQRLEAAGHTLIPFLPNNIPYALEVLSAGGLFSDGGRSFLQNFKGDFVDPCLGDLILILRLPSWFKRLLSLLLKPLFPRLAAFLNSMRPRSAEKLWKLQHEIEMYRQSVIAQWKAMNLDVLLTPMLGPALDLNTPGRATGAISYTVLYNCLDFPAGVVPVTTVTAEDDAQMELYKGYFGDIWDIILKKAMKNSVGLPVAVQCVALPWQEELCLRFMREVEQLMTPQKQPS
Procedure: Brains (minus cerebella) from adult Wistar or Sprague-Dawley stored at −80°C were thawed, weighed and homogenized in cold buffer (20 mM HEPES, 1 mM MgCl2 pH 7.0). Homogenates were centrifuged at 35,000 g at 4°C for 20 min and the pellet was resuspended in homogenization buffer (repeated twice) before being incubated at 37°C for 15 min to degrade any endogenous substrate that might interfere with the FAAH assay. Following centrifugation, the pellets were resuspended in cold buffer (50 mM Tris-HCl, 1 mM EDTA, 3 mM MgCl2, pH 7.4). The protein concentration of each homogenates was determined according to the Bradford assay after which the samples were frozen in aliquots at −80°C until used for FAAH assay. Ethical permission for the animal experiments was obtained from the local animal research ethical committee (Umeå Ethical Committee for Animal Research, Umeå, Sweden).
The assay was performed according to Boldrup et al.. Homogenates (1 µg protein per assay) diluted in 10 mM Tris-HCl, 1 mM EDTA, pH 7.4 or pH 5.1 were mixed with test substance dissolved in DMSO (total concentration in assay 5%) at an ambient temperature of 4°C. Reactions were initiated by addition of AEA-[^3H] (assay concentration 0.5 µM) in 10 mM Tris-HCl, 1 mM EDTA, pH 7.4 containing 10 mg ml^−1 fatty acid-free bovine serum and incubation at 37°C which was allowed to proceed for 10 min. […] Blank samples contained buffer instead of homogenate and DMSO (5%). The assay volume of each sample was 200 µl. The pH values given in the text were determined by measurement at 37°C of scaled-up mixtures of homogenization and assay buffers. The reaction was terminated by addition of 400 µl activated charcoal (80 µl activated charcoal +320 µl 0.5 M HCl) and placement of samples on ice. Samples were kept in room temperature for 45–60 min before being centrifuged at 2500 rpm for 10 min. Aliquots (200 µl) of the supernatant was analyzed for tritium content by liquid scintillation with quench correction.
as §2

[4] = test system: COX-2; conditions: read-out: IC50, 2-AG oxygenation; cited from earlier work
[5] = test system: COX-2; conditions: read-out: IC50, AA oxygenation by COX-2; cited from earlier work
[6] = test system: COX-1; design: method as in PMID 24120370; conditions: read-out: IC50, AA oxygenation by COX-1; cited from earlier work
[7] = cited from earlier work
[8] = cited from earlier work; for urinary recovery: 24 h after administration of 400 mg of ibuprofen
[9] = biological target: T3, human recombinant COX-2 (Homo sapiens, UniProt P35354); assay: COX-2 oxygenation of arachidonic acid, oxygen electrode; type: biochemical; conditions: for COX-2 activity (% of control): substrate AA 10 µM, initial activity 10-30 s, n = 3
T3 construct: purchased Cayman Chemical Co. 60122
T3 sequence (P35354 18-604): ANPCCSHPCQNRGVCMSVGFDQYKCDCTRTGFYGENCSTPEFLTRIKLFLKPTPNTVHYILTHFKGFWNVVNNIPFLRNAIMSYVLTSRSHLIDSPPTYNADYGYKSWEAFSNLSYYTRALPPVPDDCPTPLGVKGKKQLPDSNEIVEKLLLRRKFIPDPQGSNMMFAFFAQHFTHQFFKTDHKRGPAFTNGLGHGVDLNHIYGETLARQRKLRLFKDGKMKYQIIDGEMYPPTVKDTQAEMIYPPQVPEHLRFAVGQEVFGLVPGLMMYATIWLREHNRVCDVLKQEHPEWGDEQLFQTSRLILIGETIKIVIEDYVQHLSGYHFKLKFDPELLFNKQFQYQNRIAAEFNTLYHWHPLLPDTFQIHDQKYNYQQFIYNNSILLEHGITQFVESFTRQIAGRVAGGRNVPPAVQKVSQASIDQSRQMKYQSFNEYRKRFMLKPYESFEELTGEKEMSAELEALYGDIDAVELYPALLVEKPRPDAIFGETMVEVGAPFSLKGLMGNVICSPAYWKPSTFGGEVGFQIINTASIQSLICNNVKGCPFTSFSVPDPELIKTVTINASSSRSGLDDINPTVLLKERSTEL
Procedure: as §1, §2

[10] = biological target: T3, human recombinant COX-2; assay: COX-2 oxygenation of 2-AG, oxygen electrode; type: biochemical; conditions: for COX-2 activity (% of control): substrate 2-AG 10 µM, initial activity 10-30 s, n = 3
Procedure: as §1, §2

[11] = test system: µ-opoid receptors; conditions: cited from earlier work
[12] = test system: FAAH; design: method as in PMID 16997568; conditions: pH 6 and 8; rat brain homogenates; cited from earlier work
[13] = test system: NAAA; design: method as in PMID 16154384; conditions: cited from earlier work
[14] = pH 6.0, read-out: IC50, inhibition of [3H]AEA hydrolysis (converted)
[15] = pH 6.0, read-out: pI50, inhibition of [3H]AEA hydrolysis (converted)

## Cc1cccnc1NC(=O)C(C)c1ccc(CC(C)C)cc1 (stereo not drawn)
[1]
  potency as FAAH inhibitor at pH 6 versus pH 8: slightly less potent inhibitor of FAAH at pH 6 than at pH 8

## CC(C(=O)O)c1ccc(-c2ccccc2)c(F)c1 (racemic) [Flurbiprofen, (±)-2-flouro-α-methyl(1,1′-biphenyl)-4-acetic acid, reference compound]
[2]; 30 µM compound
  inhibition of COX-1: Complete inhibition
[3]; [14]
  IC50: 28 µM
[3]; [15]
  IC50: 27.5 µM
[3]; pH 7.3, read-out: IC50, inhibition of [3H]AEA hydrolysis (converted)
  IC50: 51 µM
[3]; pH 7.3, read-out: pI50, inhibition of [3H]AEA hydrolysis (converted)
  IC50: 51.3 µM
[4]
  IC50: […]
[5]
  IC50: […]
[6]
  IC50: […]
[7]; dose of 50 mg
  maximal plasma concentration (racemate equivalent of R- and S-enantiomers): […]
[8]; flurbiprofen 50 mg a day for 10 consecutive days
  share of the dose recovered in the urine: 23%

## CC(C)Cc1ccc(C(C)C(=O)O)cc1 (racemic) [Ibuprofen, (±)-2-(4-Isobutylphenyl)propanoic acid]
[7]; 200 mg single doses of two different ibuprofen preparations
  peak plasma concentration: 110 to 150 µM
[8]
  urinary recovery: 11%
[1]; read-out: potency, inhibition of AEA hydrolysis by FAAH
  IC50: 270 µM

## CC(C(=O)O)c1ccc(C(O)C(C)C)cc1 (stereo not drawn) [1′-OH-Ibuprofen, 2-[4-(1-hydroxy-2-methylpropyl)phenyl]propionic acid]
[2]; 100 µM NSAID
  COX-1 activity (% of control): 112±21 % of control
[2]; 300 µM NSAID
  COX-1 activity (% of control): 81±21 % of control
[2]
  inhibition at 300 µM: 19%
[2]; 1000 µM NSAID
  COX-1 activity (% of control): 102±18 % of control
[9]; 100 µM NSAID
  COX-2 activity (% of control): 91±8 % of control
[9]; 300 µM NSAID
  COX-2 activity (% of control): 59±13 % of control
[10]; 100 µM NSAID
  COX-2 activity (% of control): 103±22 % of control
[10]; 300 µM NSAID
  COX-2 activity (% of control): 108±15 % of control
[3]; [14]
  IC50: 340 µM
[3]; [15]
  IC50: 339 µM
[3]; pH 7.3
  inhibition at 1000 µM: 47 ± 0.8%

## CN1CC[C@]23c4c5ccc(O)c4O[C@H]2[C@@H](O[C@@H]2O[C@H](C(=O)O)[C@@H](O)[C@H](O)[C@H]2O)C=C[C@H]3[C@H]1C5 [6-glucuronide metabolite of morphine]
[11]
  potency relative to parent drug (morphine): 2–4 times

## CC(Cc1ccc(C(C)C(=O)O)cc1)C(=O)O (stereo not drawn) [Carboxyibuprofen, 2-[4-(2-carboxypropyl)phenyl]propionic acid]
[2]
  inhibition at 300 µM: 4%
[9]; 10 µM compound, Fig. S2, preliminary, two experiments
  effect on rate of oxygenation of AA: appeared to increase the rate of oxygenation
[9]; 100 µM NSAID
  COX-2 activity (% of control): 132±16 % of control
[9]; 300 µM NSAID
  COX-2 activity (% of control): 139±41 % of control
[10]; 100 µM NSAID
  COX-2 activity (% of control): 105±19 % of control
[10]; 300 µM NSAID
  COX-2 activity (% of control): 132±17 % of control
[10]; 300 µM compound, Fig. S1
  effect on rate of oxygenation of 2-AG: appeared to increase the rate of oxygenation
[3]; [14]
  IC50: 410 µM
[3]; [15]
  IC50: 417 µM
[3]; pH 7.3
  inhibition at 1000 µM: 31 ± 4%
[8]
  urinary recovery: 40%

## NC(=O)c1cccc(-c2cccc(OC(=O)NC3CCCCC3)c2)c1 [URB597]
[12]
  inhibition of AEA hydrolysis: completely inhibits
[13]
  activity towards NAAA: lacks activity
